{"source": "patent US8946292B2", "about": "“Formulations of low dose diclofenac and beta-cyclodextrin” (Javelin Pharmaceuticals, Inc., priority 2006, dated 2015)", "system": "moderate-to-severe post-surgical pain (post-surgical dental pain)", "assay": "Randomized, double-blind, single-dose, placebo- and comparator-controlled study of pain relief by administered dose (bolus IV)", "type": "in vivo, human", "conditions": "30 mg single bolus IV dose (comparator)", "procedure": "A 336-patient, seven treatment arm, randomized, double-blind, single-dose, and placebo- and comparator-controlled, parallel-group study was conducted. Patients were randomly assigned to receive a single dose of either diclofenac sodium solubilized with hydroxypropyl-beta-cyclodextrin (hereinafter “DIC”), ketorolac tromethamine, or placebo.\nBolus IV injectable 2 ml solutions were prepared by solubilizing diclofenac sodium with hydroxypropyl-beta-cyclodextrin. […]\nPain was assessed by each patient at Baseline (0 hour: Visual Analog Scale (VAS) and categorical pain intensity only), at 5, 15, 30 and 45 minutes, and at 1, 1.5, 2, 3, 4, 5, 6, 7, 8, 10, 12 and 24 hours after administration of study medication and immediately prior to the first dose of rescue medication. At each post-dose time period, levels of pain intensity (categorical and VAS) and pain relief (categorical and VAS) was assessed by each patient. […]\nThe presence of a dose-response was tested with a step-down testing procedure. Total pain relief (TOTPAR), peak pain relief, pain intensity difference (SPID), summed peak reduction in pain intensity difference (SPRID), and patient global evaluation was analyzed with analysis of variance (ANOVA) with treatment, center, and baseline categorical pain intensity as factors. […] A 95% confidence interval for each estimated median time to event was calculated. […]", "data": [{"smiles": "O=C(c1ccccc1)c1ccc2n1CCC2C(=O)O", "note": "(centres unmarked) [ketorolac, ketorolac tromethamine]", "values": [{"measurement": "% Maximum Effect (TOTPAR)", "result": 100, "unit": "%"}, {"measurement": "TOTPAR (Sum of Pain Relief VAS 0-100 mm ratings 0-6 hours)", "setting": "patients, 0-6 hours", "result": 400.3}]}]}
